Test results from patent US12306164B2, “Therapeutic drug for lipid-peroxidation-induced diseases and screening method for therapeutic drugs for lipid-peroxidation-induced diseases” (FUSO PHARMACEUTICAL INDUSTRIES, LTD., priority 2017, dated 2025).
Where a name gives a salt, the structure may show the parent alone.

Tests used:
[1] = tested on: lipid peroxidation reaction in liposomes (AAPH system); assay: NBD-TEEPO assay in artificial lipid membranes, AAPH system; format: biochemical; conditions: AAPH 20 mM, AsA 0-20 μM, after 40 minutes
Method: (§1) Probes (NBD-TEEPO compound) (5.0 μM) and liposomes (2.5 mg/mL Egg PC, 0.1 mg/mL DCP) were mixed in phosphate buffer (10 mM, pH 7.4, 0.5% DMSO, 0.5% acetonitrile) at 37° C. AAPH (0-20 mM) or FeSO4 (0-2.0 mM) was added to the mixture, and the lipid peroxidation reaction was started. After 40 minutes in the AAPH system or after 60 minutes in the Fe^2+ system, the fluorescence intensity was measured at an excitation wavelength of 470 nm and a fluorescence wavelength of 530 nm.

HepG2 cells [2] = assay: Intracellular lipid peroxidation inhibition by antioxidants (NBD-TEEPO assay); format: cell-based, human; conditions: 200 μM AA or 300 μM tBHP, 50 μM antioxidant, 45 minutes
Method: Human hepatoma cells (HepG2 cells) were cultured with DMEM medium (containing 10% FBS, 1% Penicillin-Streptomycin and 1×MEM non-essential amino acids) in a CO2 incubator (37° C., 5% CO2). Passaging was performed when 60-70% subconfluent state was reached. DMEM media (phenol red free, containing 1% Penicillin-Streptomycin) was used for various measurements. HepG2 cells were seeded in a 96-well plate at 10,000 cells/well. The cells were incubated for 24 hours to adhere. AA (200 μM) or tBHP (0 to 300 μM), antioxidant (50 μM), and probe (5.0 μM) were added to the cells in DMEM medium (0.5% DMSO, 0.5% acetonitrile), and after 45 minutes, the fluorescence intensity was measured at an excitation wavelength of 470 nm and a fluorescence wavelength of 530 nm.

HepG2 cells [3] = assay: Secondary screening, Core Library (NBD-TEEPO assay); format: cell-based, human; conditions: 50 μM compound, 200 μM AA (45 minutes) or 300 μM tBHP (60 minutes); high activity values in both systems
Method: In the screening by the cell-based assay method, activity values were determined from the values of fluorescence intensity measured in each screening using AA or tBHP as a reaction initiator, based on the following expression: Activity value=100(AUCSample−AUCBackground)/(AUCControl−AUCBackground) • AUCSample: Area under the curve calculated from the fluorescence intensity for with reaction initiator and with each compound (n=1) • AUCControl: Area under the curve calculated from fluorescence intensity for with reaction initiator and without each compound • AUCBackground: Area under the curve calculated from fluorescence intensity for without reaction initiator and without each compound
For the compounds, 10 mM 100% DMSO solutions (dispensed at 5.0 µL/well) were provided from Drug Discovery Initiative, the University of Tokyo. 495 μL of DMEM medium for measurement was added, and a 1.0% DMSO solution containing 100 μM of the compound was prepared. This solution was dispensed by 80 μL with Biomek NXP into a measuring plate on which cells were seeded in advance. To the test compound (100 μM 1.0% DMSO), 64 μL of DMEM medium (1.25% acetonitrile) containing 12.5 M NBD-TEEPO compound, and 16 μL of PBS in which AA (2000 μM, 5.0% ethanol) or tBHP (3000 μM) was dissolved were manually dispensed. The final concentration was 50 μM test compound and 200 μM AA or 300 μM tBHP in DMEM medium (0.5% DMSO, 0.5% acetonitrile).
The reaction mixture was mixed at 37° C., and the fluorescence intensity at an excitation wavelength of 470 nm and a fluorescence wavelength of 530 nm was measured over time every 3 minutes. The AUC was calculated from the fluorescence intensity for 45 minutes in the AA-added system or 60 minutes in the tBHP-added system, and the activity value of each test compound was calculated according to the expression described herein.

HepG2 cells [4] = assay: Secondary screening, Core Library (MTT assay); format: cell-based, human; conditions: 50 μM compound, 100 μM AA or tBHP, 24 hours
Method: As a cell-based screening for examining the cell death inhibitory activity, an assay using human hepatoma-derived HepG2 cells and AA and tBHP as radical initiators is performed, and the cell viability is measured. The activity value is determined from the cell viability value based on the following expression: Activity value=100(ViabilitySample−ViabilityControl(+))/(ViabilityControl(−)−ViabilityControl(+)) • ViabilitySample: Cell viability for with reaction initiator and with each compound (n=1) • ViabilityControl(+): Cell viability for with reaction initiator and with each compound • ViabilityControl(−): Cell viability for without reaction initiator and without each compound
For the compounds, 10 mM 100% DMSO solutions (dispensed at 5.0 µL/well) were provided from Drug Discovery Initiative, the University of Tokyo. 495 μL of DMEM medium for measurement was added, and 1.0% DMSO solution containing 100 μM of the compound was prepared. This solution was dispensed by 80 μL with Biomek NXP into a measuring plate on which cells were seeded in advance. To the test compound (100 μM 1.0% DMSO), 64 μL of DMEM medium, 16 μL of PBS in which AA (1000 μM, 5.0% ethanol) or tBHP (1000 μM) was dissolved were manually dispensed. The final concentration was 5.0 μM NBD-TEEPO compound, 50 μM test compound, and 100 μM AA or tBHP in DMEM medium (0.5% DMSO, 0.5% acetonitrile). After 24 hours, the medium was exchanged, and MTT solution (0.5 mg/mL, 0.5% DMSO) was added. Then, cells were incubated for 24 hours, and the solution was removed. 100 μL of DMSO was added, and the absorbance at 630 nm was measured. The cell viability was calculated according to the expression described herein, with regarding the case without AA or tBHP as 100%.

HepG2 cells [5] = assay: Tertiary screening, Core Library (NBD-TEEPO assay); format: cell-based, human; conditions: 50 μM compound, 200 μM AA or 300 μM tBHP
Method: The Core Library of Drug Discovery Initiative, the University of Tokyo, includes structural analogs for each compound. Then, secondary screening was also performed for structural analog compounds for each candidate compound in the same manner as Example 13 and the activity values were evaluated.
(§2) Specifically, the nine hit compounds, Compound Nos. 7, 19, 39, 48, 52, 64, 73, 78, 80, of the secondary screening had 5, 2, 4, 6, 6, 5, 5, 10, 2 structural analogs, respectively, thus, a total 45 structural analogs were taken. Then, including the original 9 compounds, a total 54 compounds were subjected to tertiary screening, and the activity values were calculated in the same manner.
(§3) For the evaluation of cytotoxicity, 50 μM antioxidant was added to HepG2 cells in DMEM medium (0.5% DMSO), and after incubation at 37° C. for 72 hours, the cell viability was measured. • 4) The activity values of the two-added systems in each of the assay using NBD-TEEPO and the MTT assay were plotted (FIG. 15C and FIG. 16C).

HepG2 cells [6] = assay: Tertiary screening, Core Library (MTT assay); format: cell-based, human; conditions: 50 μM compound, 100 μM AA or tBHP, 24 hours
Method: as §2, with “manner. […]” for “manner.”

HepG2 cells [7] = assay: Cytotoxicity evaluation at tertiary screening (MTT, compound alone); format: cell-based; conditions: 50 μM compound alone, 72 hours
Method: To 1.0×10^4 HepG2 cells, 50 μM compound were added, and cell viability after 72 hours was measured by an MTT assay.
as §3

[8] = not told; cited from earlier work
[9] = tested on: lipid peroxidation reaction in liposomes (Fe^2+ system); assay: NBD-TEEPO assay in artificial lipid membranes, Fe2+ system; format: biochemical; conditions: FeSO4 1 mM, Eda 0-20 μM, after 60 minutes
Method: as §1

## O=C1O[C@H]([C@@H](O)CO)C(O)=C1O [AsA, ascorbic acid]
[1]
  inhibition of NBD-TEEPO fluorescence increase: inhibited the fluorescence increase concentration-dependently

## Oc1cc(O)c2c(c1)O[C@H](c1ccc(O)c(O)c1)[C@H](O)C2 [Catechin, (−)-epicatechin]
HepG2 cells [2]
  inhibitory effect on AA- and tBHP-induced fluorescence increase: strongest inhibitory effect

## CC(Nc1ccc(Nc2ccccc2)cc1)C(=O)Nc1ccc(S(N)(=O)=O)cc1 (centres unmarked) [Compound 7, 2-((4-(Phenylamino)phenyl)amino)-N-(4-sulfamoylphenyl)propanamide]
HepG2 cells [3]
  activity values (lipid peroxidation inhibition) in both AA-added and tBHP-added systems: hit compounds

## C/C(=N/Nc1nnc(Nc2ccccc2Cl)s1)c1ccccn1 [Compound 19]
HepG2 cells [4]
  inhibition rates (cell death inhibition) in both AA-added and tBHP-added systems: high inhibition rates in both systems

## CN(C1CC(C)(C)N(O)C(C)(C)C1)S(=O)(=O)CC12CCC(CC1=O)C2(C)C (centres unmarked) [Compound 39, 1-(7,7-Dimethyl-2-oxobicyclo[2.2.1]heptan-1-yl)-N-(1-hydroxy-2,2,6,6-tetramethylpiperidin-4-yl)-N-methylmethanesulfonamide]
HepG2 cells [4]
  inhibition rates (cell death inhibition) in both AA-added and tBHP-added systems: high inhibition rates in both systems

## COc1cc(/C=C/c2ccc3cccc([N+](=O)[O-])c3n2)cc(OC)c1O [Compound 48, 2,6-Dimethoxy-4-(2-(8-nitroquinolin-2-yl)vinyl)phenol]
HepG2 cells [3]
  activity values (lipid peroxidation inhibition) in both AA-added and tBHP-added systems: hit compounds

## COC(=O)c1ccc(Nc2ccccc2)c(N)c1 [Compound 52, Methyl 3-amino-4-(phenylamino)benzoate]
HepG2 cells [5]
  lipid peroxidation inhibitory effects: high
HepG2 cells [6]
  cell death inhibitory effects: high
HepG2 cells [4]
  inhibition rates (cell death inhibition) in both AA-added and tBHP-added systems: high inhibition rates in both systems

## COC(=O)c1ccc(Nc2ccc(OC)cc2)c(N)c1 [Compound 52-1, Methyl 3-amino-4-((4-methoxyphenyl)amino)benzoate]
HepG2 cells [5]
  lipid peroxidation inhibitory effects: high
HepG2 cells [6]
  cell death inhibitory effects: high

## COC(=O)c1ccc(Nc2cccc(OC)c2)c(N)c1 [Compound 52-3, Methyl 3-amino-4-((3-methoxyphenyl)amino)benzoate]
HepG2 cells [5]
  lipid peroxidation inhibitory effects: high
HepG2 cells [6]
  cell death inhibitory effects: high

## COC(=O)c1ccc(NCc2ccccc2)c(N)c1 [Compound 52-4, Methyl 3-amino-4-(benzylamino)benzoate]
HepG2 cells [5]
  lipid peroxidation inhibitory effects: high
HepG2 cells [6]
  cell death inhibitory effects: high

## CN(C)c1cc2c(cc1N)-c1ccccc1C2 [Compound 64, N^2,N^2-Dimethyl-9H-fluorene-2,3-diamine]
HepG2 cells [3]
  activity values (lipid peroxidation inhibition) in both AA-added and tBHP-added systems: hit compounds

## NC(=O)c1cccc(-c2ccc3nc(-c4cccc(OCCO)c4)c(NCCN4CCOCC4)n3c2)c1 [Compound 73, 3-(2-(3-(2-Hydroxyethoxy)phenyl)-3-((2-morpholinoethyl)amino)imidazo[1,2-a]pyridin-6-yl)benzamide]
HepG2 cells [4]
  inhibition rates (cell death inhibition) in both AA-added and tBHP-added systems: high inhibition rates in both systems

## Nc1ccc2c(c1)CCN2c1ccc(OC(F)(F)F)cc1 [Compound 78, 1-(4-(Trifluoromethoxy)phenyl)indolin-5-amine]
HepG2 cells [5]
  lipid peroxidation inhibitory effects: high
HepG2 cells [6]
  cell death inhibitory effects: high
HepG2 cells [4]
  inhibition rates (cell death inhibition) in both AA-added and tBHP-added systems: high inhibition rates in both systems

## Cc1cc(C)cc(-n2ccc3ccc(N)cc32)c1 [Compound 78-3, 1-(3,5-Dimethylphenyl)-1H-indol-6-amine]
HepG2 cells [5]
  lipid peroxidation inhibitory effects: high
HepG2 cells [6]
  cell death inhibitory effects: high

## Cc1cc(C)cc(N2CCc3ccc(N)cc32)c1 [Compound 78-4, 1-(3,5-Dimethylphenyl)indolin-6-amine]
HepG2 cells [5]
  lipid peroxidation inhibitory effects: high
HepG2 cells [6]
  cell death inhibitory effects: high

## COc1ccc(-n2ccc3cc(N)ccc32)cc1 [Compound 78-5, 1-(4-Methoxyphenyl)-1H-indol-5-amine]
HepG2 cells [5]
  lipid peroxidation inhibitory effects: high
HepG2 cells [6]
  cell death inhibitory effects: high

## CSc1ccc(-n2ccc3cc(N)ccc32)cc1 [Compound 78-6, 1-(4-(Methylthio)phenyl)-1H-indol-5-amine]
HepG2 cells [5]
  lipid peroxidation inhibitory effects: high
HepG2 cells [6]
  cell death inhibitory effects: high

## Nc1ccc2c(ccn2-c2ccc(OC(F)(F)F)cc2)c1 [Compound 78-8]
HepG2 cells [5]
  lipid peroxidation inhibitory effects: high
HepG2 cells [6]
  cell death inhibitory effects: high

## COc1cc(NS(C)(=O)=O)ccc1Nc1c2ccc(C)cc2nc2c1[nH]c1ccccc12 [Compound 80, N-(3-Methoxy-4-((3-methyl-1-10H-indolo[3,2-b]quinolin-11-yl)amino)phenyl)methanesulfonamide]
HepG2 cells [7]
  cytotoxicity: extremely high
HepG2 cells [5]
  lipid peroxidation inhibitory effects: highest
HepG2 cells [3]
  activity values (lipid peroxidation inhibition) in both AA-added and tBHP-added systems: hit compounds

## CN1CC[C@]2(C)c3cc(O)ccc3N(C)[C@H]12 [Compound W, (−)-eseroline fumarate]
[8]
  permeability to blood-retinal barrier (BRB): highly permeable

## CC1=NN(c2ccccc2)C(=O)C1 [Eda, Edaravone]
[9]
  inhibition of NBD-TEEPO fluorescence increase: inhibited the fluorescence increase concentration-dependently
